BindingDB's records for PubMed 2156866 (Nagoya University School of Medicine, 1990)

Legend:
Assay in all cases: Enzyme Assay
Details in all cases: 30 °C
[1] = target: Calcium/calmodulin-dependent protein kinase type II subunit beta (Homo sapiens, UniProt Q13554)
Description: (§1) Protein kinase C, cAMP dependent protein kinase, cGMP dependent protein kinase and myosin light chain kinase activity were measure under conditions described by Hidaka. Casein kinases I and II activities were meas8ured as described by Chijiwa. Ca/ calmodulin kinase II activity was measure d by the method described by McGuinness.

[2] = target: T1, cGMP-dependent protein kinase 1 (Homo sapiens, UniProt Q13976)
T1 sequence (Q13976 whole entry): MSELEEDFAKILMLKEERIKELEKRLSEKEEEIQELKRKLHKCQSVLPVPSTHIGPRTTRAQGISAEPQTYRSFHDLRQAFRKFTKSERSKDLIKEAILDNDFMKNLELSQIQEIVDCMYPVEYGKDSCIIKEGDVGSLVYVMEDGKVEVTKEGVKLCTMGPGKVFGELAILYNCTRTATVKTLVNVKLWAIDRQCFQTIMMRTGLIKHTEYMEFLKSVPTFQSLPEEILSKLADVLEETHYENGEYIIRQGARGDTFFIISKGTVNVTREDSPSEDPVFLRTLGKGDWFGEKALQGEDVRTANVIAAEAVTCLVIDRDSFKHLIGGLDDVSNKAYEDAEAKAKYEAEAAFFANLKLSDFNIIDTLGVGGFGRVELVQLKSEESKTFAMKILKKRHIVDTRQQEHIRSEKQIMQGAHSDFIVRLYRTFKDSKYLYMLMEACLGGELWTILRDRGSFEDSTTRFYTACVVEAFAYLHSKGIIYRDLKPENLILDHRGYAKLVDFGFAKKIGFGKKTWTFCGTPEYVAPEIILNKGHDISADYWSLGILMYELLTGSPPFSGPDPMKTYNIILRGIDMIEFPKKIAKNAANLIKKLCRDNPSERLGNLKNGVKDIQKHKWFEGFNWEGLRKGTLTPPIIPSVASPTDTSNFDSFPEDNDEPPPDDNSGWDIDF
Description: as §1

[3] = target: Casein kinase II subunit alpha (Homo sapiens, UniProt P68400)
Description: as §1

[4] = target: cAMP-dependent protein kinase catalytic subunit alpha (Homo sapiens, UniProt P17612)
Description: as §1

[5] = target: Casein kinase I isoform alpha (Homo sapiens, UniProt P48729)
Description: as §1

[6] = target: Protein kinase C alpha type (Homo sapiens, UniProt P17252)
Description: as §1

Sequence of Calcium/calmodulin-dependent protein kinase type II subunit beta (Q13554 whole entry): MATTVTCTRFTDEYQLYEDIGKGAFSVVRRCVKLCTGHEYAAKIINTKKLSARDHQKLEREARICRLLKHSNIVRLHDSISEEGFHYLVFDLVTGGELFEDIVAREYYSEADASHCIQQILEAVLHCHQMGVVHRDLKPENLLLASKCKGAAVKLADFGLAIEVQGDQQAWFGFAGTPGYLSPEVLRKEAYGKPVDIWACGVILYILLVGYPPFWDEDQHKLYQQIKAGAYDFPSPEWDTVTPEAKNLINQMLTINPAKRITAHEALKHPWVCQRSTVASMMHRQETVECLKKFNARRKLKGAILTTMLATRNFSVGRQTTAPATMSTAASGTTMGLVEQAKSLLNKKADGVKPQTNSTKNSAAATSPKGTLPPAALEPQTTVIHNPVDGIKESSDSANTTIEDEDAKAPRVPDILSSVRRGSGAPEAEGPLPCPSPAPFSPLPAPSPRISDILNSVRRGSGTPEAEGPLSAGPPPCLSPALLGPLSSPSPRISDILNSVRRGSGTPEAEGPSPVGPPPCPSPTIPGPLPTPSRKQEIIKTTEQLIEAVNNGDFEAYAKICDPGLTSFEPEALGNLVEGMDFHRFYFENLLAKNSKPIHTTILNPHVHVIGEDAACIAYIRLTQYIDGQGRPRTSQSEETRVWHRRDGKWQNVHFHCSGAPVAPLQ
Sequence of Casein kinase II subunit alpha (P68400 whole entry): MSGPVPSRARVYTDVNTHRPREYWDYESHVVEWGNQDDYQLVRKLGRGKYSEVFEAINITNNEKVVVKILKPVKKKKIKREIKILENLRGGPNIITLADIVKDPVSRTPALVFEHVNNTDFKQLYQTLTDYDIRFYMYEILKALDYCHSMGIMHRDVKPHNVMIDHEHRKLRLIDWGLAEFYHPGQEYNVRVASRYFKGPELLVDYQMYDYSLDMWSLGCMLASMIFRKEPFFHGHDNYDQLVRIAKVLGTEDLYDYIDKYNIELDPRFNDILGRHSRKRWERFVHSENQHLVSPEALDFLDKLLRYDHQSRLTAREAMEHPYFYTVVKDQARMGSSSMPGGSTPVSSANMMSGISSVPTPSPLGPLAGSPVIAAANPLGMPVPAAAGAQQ
Sequence of Casein kinase I isoform alpha (P48729 whole entry, canonical isoform): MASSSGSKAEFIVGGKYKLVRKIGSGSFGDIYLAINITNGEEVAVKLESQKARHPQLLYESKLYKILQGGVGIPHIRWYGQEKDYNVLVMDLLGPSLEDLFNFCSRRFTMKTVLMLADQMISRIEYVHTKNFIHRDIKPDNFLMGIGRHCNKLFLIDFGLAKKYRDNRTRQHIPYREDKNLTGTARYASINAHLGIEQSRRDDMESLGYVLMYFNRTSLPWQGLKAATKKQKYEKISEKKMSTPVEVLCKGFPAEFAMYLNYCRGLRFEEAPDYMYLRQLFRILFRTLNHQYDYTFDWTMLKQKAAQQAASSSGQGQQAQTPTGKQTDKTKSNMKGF

Compound | Ki [1] | Ki [2] | Ki [3] | Ki [4] | Ki [5] | Ki [6]
O=S(=O)(NCCNC/C=C/c1ccc(Br)cc1)c1cccc2cnccc12 | 29.7 µM | 0.48 µM | – | – | – | –
O=S(=O)(NCCNC/C=C/c1ccccc1)c1cccc2cnccc12 [H-88] | 71.3 µM | 0.76 µM | 104 µM | 0.36 µM | 60.7 µM | 75.7 µM
